Measured values: US20250049938A1, “ANTIBODY-DRUG CONJUGATE AND USE THEREOF” (priority 2021, published 2025)
Starred links: 1 amine or outer side, 2 acyl side, 3 side chain; linkers in the order of their positions; H or OH if unused. Non-standard residues stand in square brackets, D forms with d. Residues, ends and D or L forms follow the SMILES beside them. *: point of attachment. Exatecan = CC[C@@]1(O)C(=O)OCc2c1cc1n(c2=O)Cc2c-1nc1cc(F)c(C)c3c1c2[C@@H](N*)CC3; Hexanoyl(6-maleimido) = O=C1C=CC(=O)N1CCCCCC(=O)*; NHCH2OCH2CO = O=C(COCN[*:1])[*:2]

System: human colon cancer SW620 cells
Assay: In vitro killing of human colon cancer SW620 cells (CellTiter-Glo)
Format: cell-based
Conditions: FIG. 2B; 2-fold dilutions from 400 nM, 9 concentrations; culturing 4 days and 6 days
Description: Human colon cancer SW620 cells in the logarithmic growth phase were digested with pancreatin, and subsequently resuspended in a corresponding culture medium, with the density adjusted to be 2×10^4 cells/mL. The cells were seeded into a 96-well microplate at 100 μL/well, allowing for a density of 2×10^3 cells/well, and 200 μL of the culture medium was added to each of the rest wells. After culturing for 48 h at 37° C., 5% CO2, the supernatant was pipetted from the cell culture plate. The linker-drugs (04-Dxd, 07-Dxd, 08-Dxd, and 09-Dxd), HER3 ADCs (HER3-ADC04, HER3-ADC07, HER3-ADC08, and HER3-ADC09), and a monoclonal antibody control were diluted in a 2-fold gradient with the culture medium, starting from the initial concentration of 400 nM, to obtain a total of 9 concentration gradients. The diluted samples were added at 100 μL/well. After further culturing for 4 days and 6 days, color development was carried out. The cell plate was taken out and equilibrated for 15-20 min at room temperature, and subsequently 100 μL of CellTiter-Glo® Luminescent Cell Viability assay buffer (purchased from Promega) was added. The plate was shaken for 2 min on a shaker at 200 rpm, kept for 18 min in the dark, and read using an M5 microplate reader.
followed by plotting through four-parameter fitting, with the logarithm of the concentration as the abscissa and the killing rate as the ordinate.

Which “in vitro killing effect of linker-Dxd drugs on SW620 cells” value (“in vitro killing effect” below) does the source give for `CC[C@@]1(O)C(=O)OCc2c1cc1n(c2=O)Cc2c-1nc1cc(F)c(C)c3c1c2[C@@H](NC(=O)COCNC(=O)CNC(=O)[C@H](Cc1ccccc1)NC(=O)CNC(=O)CNC(=O)CCCCCN1C(=O)C=CC1=O)CC3` [04-Dxd, reference compound] ({Hexanoyl(6-maleimido)}-GGFG[NHCH2OCH2CO]-Exatecan) here?
Its value is “killing effect”.

How did the “in vitro killing effect” value turn out when `CC[C@@]1(O)C(=O)OCc2c1cc1n(c2=O)Cc2c-1nc1cc(F)c(C)c3c1c2[C@@H](NC(=O)COCNC(=O)CNC(=O)[C@H](Cc1ccccc1)NC(=O)CNC(=O)[C@H](C)NC(=O)[C@@H](NC(=O)CCCCCN1C(=O)C=CC1=O)C(C)C)CC3` [07-Dxd] ({Hexanoyl(6-maleimido)}-VAGFG[NHCH2OCH2CO]-Exatecan) was run?
The value was “significantly better killing effect than 04-Dxd”.

How did the “in vitro killing effect” value turn out when `CC[C@@]1(O)C(=O)OCc2c1cc1n(c2=O)Cc2c-1nc1cc(F)c(C)c3c1c2[C@@H](NC(=O)COCNC(=O)CNC(=O)[C@H](Cc1ccccc1)NC(=O)CNC(=O)[C@H](CO)NC(=O)[C@H](C)NC(=O)[C@@H](NC(=O)CCCCCN1C(=O)C=CC1=O)C(C)C)CC3` [08-Dxd] ({Hexanoyl(6-maleimido)}-VASGFG[NHCH2OCH2CO]-Exatecan) was run?
The value was “significantly better killing effect than 04-Dxd”.

Which “in vitro killing effect” value does the source give for `CC[C@@]1(O)C(=O)OCc2c1cc1n(c2=O)Cc2c-1nc1cc(F)c(C)c3c1c2[C@@H](NC(=O)COCNC(=O)CNC(=O)[C@H](Cc1ccccc1)NC(=O)CNC(=O)[C@H](CO)NC(=O)[C@H](CO)NC(=O)[C@H](C)NC(=O)[C@@H](NC(=O)CCCCCN1C(=O)C=CC1=O)C(C)C)CC3` [09-Dxd] ({Hexanoyl(6-maleimido)}-VASSGFG[NHCH2OCH2CO]-Exatecan) here?
Its value is “significantly better killing effect than 04-Dxd”.
